System: bean seeds
Assay: Plant growth and yield from bean seeds, daylight or darkness (Example 2)
Assay type: in vivo
Protocol: Three different treatments were explored on bean seeds to determine the effects of ribose (at two different doses) on plant growth and proliferation. [The three treatments include control (plain water), a 0.1332 M solution of ribose (5 g D-ribose dissolved in 250 ml water), and a 0.0666 M solution of ribose (5 g D-ribose dissolved in 500 ml water)]. The plants were kept under two different conditions, normal daylight and darkness. A total of six plants will be tested, with the conditions that each plant were tested at listed below. Treatments: [table] Each seed was planted under identical conditions (soil and pot size) and all at the same time. The environmental conditions (such as temperature and humidity), except for lighting, were kept constant for all the plants. Once potted, each seed received one to two tablespoons of treatment liquid (as mentioned above). A daily record was kept of the activity of each plant. Watering was done on every other day (or sooner if the soil was deemed too dry by the researcher), each again receiving one tablespoon of treatment liquid. Assessment of the effects of ribose fertilization was determined by measuring the time to the first appearance of a plant from the soil, the rate of growth, and leaf size. Table 3 represents the accumulated plant growth data from Example 2 and FIGS. 3 and 4 are graphic presentations of plant growth during light and dark conditions.

In the case of O=C[C@H](O)[C@H](O)[C@H](O)CO [5/500, D-ribose], the “Amount of Growth Between Measurements” value (Dark, Day 0 (17-Sep)) is reported as 0, the Plant growth-height (Dark, Day 0 (17-Sep)) is reported as 0 and the “Rate of Growth Between Measurements” value (Dark, Day 0 (17-Sep)) is reported as 0. The “Amount of Growth Between Measurements” value (Dark, Day 3 (20-Sep)) was 0, the Plant growth-height (Dark, Day 3 (20-Sep)) was 0 and the “Rate of Growth Between Measurements” value (Dark, Day 3 (20-Sep)) was 0. For the same compound, the “Amount of Growth Between Measurements” value (Dark, Day 5 (22-Sep)) was 0, the Plant growth-height (Dark, Day 5 (22-Sep)) was 0 and the “Rate of Growth Between Measurements” value (Dark, Day 5 (22-Sep)) was 0. The “Rate of Growth Overall Thru Date” value (Dark, Day 5 (22-Sep)) was 0, the “Amount of Growth Between Measurements” value (Dark, Day 7 (24-Sep)) was 5.2 and the Plant growth-height (Dark, Day 7 (24-Sep)) was 5.2. For the same compound, the “Rate of Growth Between Measurements” value (Dark, Day 7 (24-Sep)) was 2.60, the “Rate of Growth Overall Thru Date” value (Dark, Day 7 (24-Sep)) was 0.74 and the “Amount of Growth Between Measurements” value (Dark, Day 8 (25-Sep)) was 5.9. The Plant growth-height (Dark, Day 8 (25-Sep)) was 11.1, the “Rate of Growth Between Measurements” value (Dark, Day 8 (25-Sep)) was 5.90 and the “Rate of Growth Overall Thru Date” value (Dark, Day 8 (25-Sep)) was 1.39. For the same compound, the “Amount of Growth Between Measurements” value (Dark, Day 9 (26-Sep)) was 9.7, the Plant growth-height (Dark, Day 9 (26-Sep)) was 20.8 and the “Rate of Growth Between Measurements” value (Dark, Day 9 (26-Sep)) was 9.70. For the same compound, the “Rate of Growth Overall Thru Date” value (Dark, Day 9 (26-Sep)) was 2.31, the “Amount of Growth Between Measurements” value (Dark, Day 10 (27-Sep)) was 9.8 and the Plant growth-height (Dark, Day 10 (27-Sep)) was 30.6. For the same compound, the “Rate of Growth Between Measurements” value (Dark, Day 10 (27-Sep)) was 9.80, the “Rate of Growth Overall Thru Date” value (Dark, Day 10 (27-Sep)) was 3.06 and the “Amount of Growth Between Measurements” value (Dark, Day 11 (28-Sep)) was 5.2. The Plant growth-height (Dark, Day 11 (28-Sep)) was 35.8, the “Rate of Growth Between Measurements” value (Dark, Day 11 (28-Sep)) was 5.20 and the “Rate of Growth Overall Thru Date” value (Dark, Day 11 (28-Sep)) was 3.25. For the same compound, the “Amount of Growth Between Measurements” value (Dark, Day 12 (29-Sep)) was 3.5, the Plant growth-height (Dark, Day 12 (29-Sep)) was 39.3 and the “Rate of Growth Between Measurements” value (Dark, Day 12 (29-Sep)) was 3.50. The “Rate of Growth Overall Thru Date” value (Dark, Day 12 (29-Sep)) was 3.28, the “Amount of Growth Between Measurements” value (Dark, Day 13 (30-Sep)) was 5.5 and the Plant growth-height (Dark, Day 13 (30-Sep)) was 44.8. The “Rate of Growth Between Measurements” value (Dark, Day 13 (30-Sep)) was 5.50, the “Rate of Growth Overall Thru Date” value (Dark, Day 13 (30-Sep)) was 3.45 and the “Amount of Growth Between Measurements” value (Dark, Day 16 (3-Oct)) was 2. For the same compound, the Plant growth-height (Dark, Day 16 (3-Oct)) was 46.8, the “Rate of Growth Between Measurements” value (Dark, Day 16 (3-Oct)) was 0.67 and the “Rate of Growth Overall Thru Date” value (Dark, Day 16 (3-Oct)) was 2.93. The “Amount of Growth Between Measurements” value (Dark, Day 19 (6-Oct)) was 0, the Plant growth-height (Dark, Day 19 (6-Oct)) was 46.8 and the “Rate of Growth Between Measurements” value (Dark, Day 19 (6-Oct)) was 0.00. For the same compound, the “Rate of Growth Overall Thru Date” value (Dark, Day 19 (6-Oct)) was 2.46, the “Amount of Growth Between Measurements” value (Light, Day 0 (17-Sep)) was 0 and the Plant growth-height (Light, Day 0 (17-Sep)) was 0. For the same compound, the “Rate of Growth Between Measurements” value (Light, Day 0 (17-Sep)) was 0, the “Amount of Growth Between Measurements” value (Light, Day 3 (20-Sep)) was 0 and the Plant growth-height (Light, Day 3 (20-Sep)) was 0. For the same compound, the “Rate of Growth Between Measurements” value (Light, Day 3 (20-Sep)) was 0, the “Amount of Growth Between Measurements” value (Light, Day 5 (22-Sep)) was 0 and the Plant growth-height (Light, Day 5 (22-Sep)) was 0. The “Rate of Growth Between Measurements” value (Light, Day 5 (22-Sep)) was 0, the “Rate of Growth Overall Thru Date” value (Light, Day 5 (22-Sep)) was 0 and the “Amount of Growth Between Measurements” value (Light, Day 7 (24-Sep)) was 0. The Plant growth-height (Light, Day 7 (24-Sep)) was 0, the “Rate of Growth Between Measurements” value (Light, Day 7 (24-Sep)) was 0 and the “Rate of Growth Overall Thru Date” value (Light, Day 7 (24-Sep)) was 0.00. The “Amount of Growth Between Measurements” value (Light, Day 8 (25-Sep)) was 0.5, the Plant growth-height (Light, Day 8 (25-Sep)) was 0.5 and the “Rate of Growth Between Measurements” value (Light, Day 8 (25-Sep)) was 0.50. The “Rate of Growth Overall Thru Date” value (Light, Day 8 (25-Sep)) was 0.06, the “Amount of Growth Between Measurements” value (Light, Day 9 (26-Sep)) was 1.6 and the Plant growth-height (Light, Day 9 (26-Sep)) was 2.1. For the same compound, the “Rate of Growth Between Measurements” value (Light, Day 9 (26-Sep)) was 1.60, the “Rate of Growth Overall Thru Date” value (Light, Day 9 (26-Sep)) was 0.23 and the “Amount of Growth Between Measurements” value (Light, Day 10 (27-Sep)) was 8.4. For the same compound, the Plant growth-height (Light, Day 10 (27-Sep)) was 10.5, the “Rate of Growth Between Measurements” value (Light, Day 10 (27-Sep)) was 8.40 and the “Rate of Growth Overall Thru Date” value (Light, Day 10 (27-Sep)) was 1.05. The “Amount of Growth Between Measurements” value (Light, Day 11 (28-Sep)) was 6.1, the Plant growth-height (Light, Day 11 (28-Sep)) was 16.6 and the “Rate of Growth Between Measurements” value (Light, Day 11 (28-Sep)) was 6.10. The “Rate of Growth Overall Thru Date” value (Light, Day 11 (28-Sep)) was 1.51, the “Amount of Growth Between Measurements” value (Light, Day 12 (29-Sep)) was 5.9 and the Plant growth-height (Light, Day 12 (29-Sep)) was 22.5. For the same compound, the “Rate of Growth Between Measurements” value (Light, Day 12 (29-Sep)) was 5.90, the “Rate of Growth Overall Thru Date” value (Light, Day 12 (29-Sep)) was 1.88 and the “Amount of Growth Between Measurements” value (Light, Day 13 (30-Sep)) was 3.8. The Plant growth-height (Light, Day 13 (30-Sep)) was 26.3, the “Rate of Growth Between Measurements” value (Light, Day 13 (30-Sep)) was 3.80 and the “Rate of Growth Overall Thru Date” value (Light, Day 13 (30-Sep)) was 2.02. The “Amount of Growth Between Measurements” value (Light, Day 16 (3-Oct)) was 2.1, the Plant growth-height (Light, Day 16 (3-Oct)) was 28.4 and the “Rate of Growth Between Measurements” value (Light, Day 16 (3-Oct)) was 0.70. The “Rate of Growth Overall Thru Date” value (Light, Day 16 (3-Oct)) was 1.78, the “Amount of Growth Between Measurements” value (Light, Day 19 (6-Oct)) was 0.6 and the Plant growth-height (Light, Day 19 (6-Oct)) was 29. The “Rate of Growth Between Measurements” value (Light, Day 19 (6-Oct)) was 0.20 and the “Rate of Growth Overall Thru Date” value (Light, Day 19 (6-Oct)) was 1.53.

Source: patent US9034793B2, “Use of ribose to enhance plant growth” (Bioenergy, Inc., priority 2002, dated 2015)
